The assay addresses N-type calcium channel currents (Cav2.2) in rDRG neurons (Rattus norvegicus, UniProt Q02294). Briefly: cell-based. As to conditions: SEM.

SMILES strings stand for the structures. Positions of bridges follow the written chain, without caps; N, C: chain ends. Non-standard residues stand in square brackets, D forms with d. Residues, ends and D or L forms follow the SMILES beside them. Hyp = O=C(O)[C@@H]1C[C@@H](O)CN1

This passage reports IC50 results from publication PMC6128854 (Scientific Reports, 2018).

Chain of N-type calcium channel currents (Cav2.2) in rDRG neurons (Q02294 whole entry, looked up): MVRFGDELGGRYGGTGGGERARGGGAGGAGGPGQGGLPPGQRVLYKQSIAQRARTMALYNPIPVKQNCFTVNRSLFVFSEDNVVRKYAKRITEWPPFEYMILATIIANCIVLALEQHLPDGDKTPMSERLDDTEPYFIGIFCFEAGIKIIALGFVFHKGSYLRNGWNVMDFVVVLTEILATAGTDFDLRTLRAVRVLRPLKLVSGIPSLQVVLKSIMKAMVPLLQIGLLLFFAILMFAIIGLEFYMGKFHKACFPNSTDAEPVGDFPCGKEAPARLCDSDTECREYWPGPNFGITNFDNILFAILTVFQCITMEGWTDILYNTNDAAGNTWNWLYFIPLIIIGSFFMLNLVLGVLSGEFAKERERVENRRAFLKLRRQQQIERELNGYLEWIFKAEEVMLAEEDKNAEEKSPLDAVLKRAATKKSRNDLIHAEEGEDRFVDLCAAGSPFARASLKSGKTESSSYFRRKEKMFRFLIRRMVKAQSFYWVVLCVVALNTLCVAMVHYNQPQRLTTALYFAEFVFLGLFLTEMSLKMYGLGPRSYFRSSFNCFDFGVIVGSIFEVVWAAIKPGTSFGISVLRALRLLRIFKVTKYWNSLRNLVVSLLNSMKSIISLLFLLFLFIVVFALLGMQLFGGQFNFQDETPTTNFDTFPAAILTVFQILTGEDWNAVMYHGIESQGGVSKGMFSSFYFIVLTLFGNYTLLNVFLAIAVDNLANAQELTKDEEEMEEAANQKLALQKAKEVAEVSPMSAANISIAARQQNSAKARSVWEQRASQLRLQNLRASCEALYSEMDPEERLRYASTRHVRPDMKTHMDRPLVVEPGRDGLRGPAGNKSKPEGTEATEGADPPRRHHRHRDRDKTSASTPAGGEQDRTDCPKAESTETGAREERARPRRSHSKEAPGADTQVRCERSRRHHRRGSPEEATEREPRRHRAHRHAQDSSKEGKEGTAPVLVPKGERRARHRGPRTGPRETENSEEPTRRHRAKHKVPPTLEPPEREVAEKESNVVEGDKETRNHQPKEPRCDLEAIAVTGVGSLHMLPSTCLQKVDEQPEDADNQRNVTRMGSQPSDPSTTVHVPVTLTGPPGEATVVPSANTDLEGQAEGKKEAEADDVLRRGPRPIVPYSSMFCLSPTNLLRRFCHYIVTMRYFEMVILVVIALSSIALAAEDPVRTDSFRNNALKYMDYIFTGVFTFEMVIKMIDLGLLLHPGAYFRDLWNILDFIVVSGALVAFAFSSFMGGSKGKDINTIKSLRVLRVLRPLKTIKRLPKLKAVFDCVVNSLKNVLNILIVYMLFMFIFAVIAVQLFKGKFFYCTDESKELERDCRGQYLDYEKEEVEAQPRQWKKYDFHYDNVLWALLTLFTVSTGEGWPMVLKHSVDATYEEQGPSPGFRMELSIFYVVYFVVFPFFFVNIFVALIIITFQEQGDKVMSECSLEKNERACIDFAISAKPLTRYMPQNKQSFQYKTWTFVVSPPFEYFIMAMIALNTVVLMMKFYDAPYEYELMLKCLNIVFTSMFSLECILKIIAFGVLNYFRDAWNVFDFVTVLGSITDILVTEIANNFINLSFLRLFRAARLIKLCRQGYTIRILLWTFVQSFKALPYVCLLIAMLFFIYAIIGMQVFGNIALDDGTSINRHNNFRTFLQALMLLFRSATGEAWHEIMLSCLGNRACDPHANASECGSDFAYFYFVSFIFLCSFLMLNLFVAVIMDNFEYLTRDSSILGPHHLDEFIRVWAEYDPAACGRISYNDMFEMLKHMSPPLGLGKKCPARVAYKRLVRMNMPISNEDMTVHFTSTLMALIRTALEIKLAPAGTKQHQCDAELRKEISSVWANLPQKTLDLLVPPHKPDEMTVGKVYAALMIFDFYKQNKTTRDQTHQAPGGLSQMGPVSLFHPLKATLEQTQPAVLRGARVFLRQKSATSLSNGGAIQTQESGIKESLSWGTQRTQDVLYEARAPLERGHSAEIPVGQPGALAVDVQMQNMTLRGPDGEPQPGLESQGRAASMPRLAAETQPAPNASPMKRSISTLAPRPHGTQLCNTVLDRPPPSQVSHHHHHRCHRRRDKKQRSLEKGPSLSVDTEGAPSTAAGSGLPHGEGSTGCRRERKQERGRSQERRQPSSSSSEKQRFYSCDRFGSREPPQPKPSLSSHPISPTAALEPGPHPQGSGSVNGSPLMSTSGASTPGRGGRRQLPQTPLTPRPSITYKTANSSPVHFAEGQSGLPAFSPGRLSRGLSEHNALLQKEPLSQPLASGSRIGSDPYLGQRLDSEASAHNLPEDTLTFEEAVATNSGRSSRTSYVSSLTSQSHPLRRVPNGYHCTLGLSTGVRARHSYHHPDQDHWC

`CC[C@H](C)[C@@H]1NC(=O)[C@@H]2CSSC[C@@H]3NC(=O)[C@H](CCCCN)NC(=O)[C@H](CO)NC(=O)CNC(=O)[C@@H]4C[C@@H](O)CN4C(=O)[C@@H]4CCCN4C(=O)[C@H](CCCCN)NC(=O)[C@@H](N)CSSC[C@H](NC(=O)[C@H](CSSC[C@@H](C(=O)N[C@@H](CCCNC(=N)N)C(=O)N[C@@H](CCCCN)C(=O)N[C@@H](Cc4ccc(O)cc4)C(=O)N[C@@H](Cc4ccc(O)cc4)C(=O)O)NC(=O)[C@H](CCCNC(=N)N)NC(=O)[C@H](CCCCN)NC(=O)[C@H]([C@@H](C)O)NC(=O)[C@H](Cc4ccc(O)cc4)NC(=O)[C@H](CO)NC1=O)NC(=O)[C@H](CC(=O)O)NC(=O)[C@H](Cc1ccc(O)cc1)NC(=O)[C@H](CCSC)NC(=O)[C@H](CO)NC(=O)[C@@H]1C[C@@H](O)CN1C(=O)[C@H](CO)NC3=O)C(=O)N[C@@H]([C@@H](C)O)C(=O)N[C@@H]([C@@H](C)O)C(=O)N2` [MoVIB-[R13Y]] (H-CKP[Hyp]GSKCS[Hyp]SMYDCCTTCISYTKRCRKYY-OH; disulfide 1-16, 8-19, 15-26): the IC50 turned out to be 900 ± 130 nM.
